Data as given in patent publication US20080009418A1, “Selective Inhibitors” (Alchemia LTD., priority 2004, published 2008).

Tests used:
Human δ-opioid (DOP) = molecular target: T1, Human δ-opioid (DOP) (Homo sapiens, UniProt P41143); test: Radioligand binding, human δ-opioid (DOP) membranes, FlashPlate, [3H]-Bremazocine; conditions: compound at 10 μM; [3H]-Bremazocine
T1 construct: purchased Perkin Elmer Biosignal
Experimental: (§1) Cloned receptor membrane preparations from Perkin Elmer Biosignal™ were used in radioligand binding assays.
(§2) A1 Human δ-opioid (DOP), A2 Human κ-Opioid (KOP), A3 Human Melanocortin (MC3), A4 Human Melanocortin (MC4), A5 Human melanocortin (MC5), A6 Human melanin-concentrating hormone (MCH1), A7 Human μ-opioid (MOP), A8 Human neurokinin (NK1), A9 Human neuropeptide Y (NPY-Y1), A10 Human opioid (ORL1) A11 Mouse urotensin (mUR2)
(§3) Screening experiments were performed in either a 50 μl filtration or 25 μl FlashPlate assay format using the following protocol:
(§4) 19.5 μl buffer, 0.5 μl of compound diluted in DMSO, 5 μl of radioligand diluted in binding buffer.
(§5) The day prior to performing the experiment 50 μl DMSO was added to each well of the compound plates to yield compounds at a final concentration of 10 mM. Daughter plates were then created by diluting the compounds further in DMSO to a concentration of 0.5 mM. The mother plates were frozen immediately.
(§6) Immobilize membranes into FlashPlate microplates using PerkinElmer BioSignal's proprietary coating procedure. Dilute radioligand to 5× the final concentration in binding buffer. Add 19.5 μl buffer to each well of the FlashPlate. Add 0.5 μl of DMSO (total value, 5 wells), reference ligand (non-specific value, 3 wells) or compound to the corresponding wells in the FlashPlate microplate. Initiate the reaction by adding 5 μl of radioligand to each well. Apply TopSeal-A onto FlashPlate microplates. Incubate at room temperature for 1 hour in the dark. Count for 30 seconds per well on TopCount Microplate Scintillation and Luminescence Counter (PerkinElmer) using a count delay of 60 seconds.
(§7) Percentage inhibition was calculated using the following formula: [formula]

Human κ-Opioid (KOP) = molecular target: T2, Human κ-Opioid (KOP) (Homo sapiens, UniProt P41145); test: Radioligand binding, human κ-opioid (KOP) membranes, filtration, [3H]-Diprenorphine; conditions: compound at 10 μM, [3H]-Diprenorphine
T2 construct: purchased Perkin Elmer Biosignal
Experimental: as §1, §2, §3
(§8) 44 μl membranes diluted in buffer, 1 μl of compound diluted in DMSO, 5 μl of radioligand diluted in binding buffer.
as §5
(§9) Thaw membranes on ice then dilute membranes in binding buffer at a concentration of 1 Unit per well. Dilute radio-ligand to 10 times the final concentration in binding buffer. Add 44 μl of diluted membranes to each well of the deep-well plate. Add 1 μl of DMSO (total value, 5 wells), reference ligand (non-specific value, 3 wells) or compound to the corresponding wells in the deep-well plate. Initiate the reaction by adding 5 μl of radioligand to each well and vortex gently. Incubate at room temperature for 1 hour. During incubation, pre-incubate the Multiscreen Harvest plates in 0.3% PEI. Filter over pre-soaked Multiscreen Harvest plates using a Tomtec Harvester. Wash 9 times with 500 μl of cold 50 mM Tris-HCl pH 7.4 at 4° C. and air-dry for 30 minutes at room temperature under a fume hood. Apply a bottom seal to the Multiscreen Harvest plates. Add 25 μl of MicroScint-0 to each well. Apply TopSeal-A to the plate. Count for 30 seconds per well on TopCount Microplate Scintillation and Luminescence Counter (PerkinElmer) using a count delay of 60 seconds.
as §7

Human μ-opioid (MOP) = molecular target: T3, Human μ-opioid (MOP) (Homo sapiens, UniProt P35372); test: Radioligand binding, human μ-opioid (MOP) membranes, FlashPlate, [3H]-Naloxone; conditions: compound at 10 μM; [3H]-Naloxone
T3 construct: purchased Perkin Elmer Biosignal
Experimental: as §1, §2, §3, §4, §5, §6, §7

Human Melanocortin (MC3) = molecular target: T4, Human Melanocortin (MC3) (Homo sapiens, UniProt P41968); test: Radioligand binding, human melanocortin MC3 membranes, FlashPlate, [125I]-NDP-αMSH; conditions: compound at 10 μM; [125I]-NDP-αMSH
T4 construct: purchased Perkin Elmer Biosignal
Experimental: as §1, §2, §3, §4, §5, §6, §7

Human opioid (ORL1) = molecular target: T5, Human opioid (ORL1) (Homo sapiens, UniProt P41146); test: Radioligand binding, human opioid ORL1 membranes, FlashPlate, [125I]-Nociceptin; conditions: compound at 10 μM; [125I]-Nociceptin
T5 construct: purchased Perkin Elmer Biosignal
Experimental: as §1, §2, §3, §4, §5, §6, §7

[1] = molecular target: T6, Human melanin-concentrating hormone (MCH1) (Homo sapiens, UniProt Q99705); test: Radioligand binding, human melanin-concentrating hormone MCH1 membranes, FlashPlate, [125I]-S36057; conditions: compound at 10 μM; [125I]-S36057
T6 construct: purchased Perkin Elmer Biosignal
Experimental: as §1, §2, §3, §4, §5, §6, §7

Human melanocortin (MC5) = molecular target: T7, Human melanocortin (MC5) (Homo sapiens, UniProt P33032); test: Radioligand binding, human melanocortin MC5 membranes, FlashPlate, [125I]-NDP-αMSH; conditions: compound at 10 μM; [125I]-NDP-αMSH
T7 construct: purchased Perkin Elmer Biosignal
Experimental: as §1, §2, §3, §4, §5, §6, §7

Human neurokinin (NK1) = molecular target: T8, Human neurokinin (NK1) (Homo sapiens, UniProt P25103); test: Radioligand binding, human neurokinin NK1 membranes, filtration, [125I]-Substance P; conditions: compound at 10 μM; [125I]-Substance P
T8 construct: purchased Perkin Elmer Biosignal
Experimental: as §1, §2, §3, §8, §5, §9, §7

[2] = molecular target: T9, Human neuropeptide Y (NPY-Y1) (Homo sapiens, UniProt P25929); test: Radioligand binding, human neuropeptide Y NPY-Y1 membranes, FlashPlate, [125I]-PYY; conditions: compound at 10 μM, [125I]-PYY
T9 construct: purchased Perkin Elmer Biosignal
T9 sequence (P25929 1-384): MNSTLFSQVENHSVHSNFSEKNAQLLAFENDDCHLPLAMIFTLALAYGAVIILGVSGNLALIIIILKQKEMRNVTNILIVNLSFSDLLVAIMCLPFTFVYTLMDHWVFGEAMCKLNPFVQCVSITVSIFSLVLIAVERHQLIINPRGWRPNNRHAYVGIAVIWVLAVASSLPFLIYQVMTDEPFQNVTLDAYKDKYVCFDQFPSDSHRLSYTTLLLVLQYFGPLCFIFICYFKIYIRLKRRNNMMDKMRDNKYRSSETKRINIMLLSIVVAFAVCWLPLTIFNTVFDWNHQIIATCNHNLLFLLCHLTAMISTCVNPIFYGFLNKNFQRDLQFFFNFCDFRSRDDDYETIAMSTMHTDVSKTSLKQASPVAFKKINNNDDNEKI
Experimental: as §1, §2, §3, §4, §5, §6, §7

Mouse urotensin (mUR2) = molecular target: T10, Mouse urotensin (mUR2) (Mus musculus, UniProt Q8VIH9); test: Radioligand binding, mouse urotensin mUR2 membranes, FlashPlate, [125I]-Urotensin II; conditions: compound at 10 μM, [125I]-Urotensin II
T10 construct: purchased Perkin Elmer Biosignal
T10 sequence (Q8VIH9 1-385): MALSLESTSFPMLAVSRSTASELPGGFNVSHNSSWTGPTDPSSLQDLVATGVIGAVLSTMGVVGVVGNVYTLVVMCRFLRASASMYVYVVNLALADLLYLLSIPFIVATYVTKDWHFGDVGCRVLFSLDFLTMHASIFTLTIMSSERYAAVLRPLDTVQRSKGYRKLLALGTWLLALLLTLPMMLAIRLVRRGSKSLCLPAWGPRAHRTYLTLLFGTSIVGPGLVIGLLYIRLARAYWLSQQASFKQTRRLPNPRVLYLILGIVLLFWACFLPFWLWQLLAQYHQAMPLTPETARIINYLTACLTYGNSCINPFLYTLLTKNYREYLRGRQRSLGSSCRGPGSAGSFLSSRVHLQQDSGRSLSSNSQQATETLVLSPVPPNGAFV
Experimental: as §1, §2, §3, §4, §5, §6, §7

Human Melanocortin (MC4) = molecular target: T11, Human Melanocortin (MC4) (Homo sapiens, UniProt P32245); test: Radioligand binding, human melanocortin MC4 membranes, FlashPlate, [125I]-NDP-αMSH; conditions: compound at 10 μM; [125I]-NDP-αMSH
T11 construct: purchased Perkin Elmer Biosignal
Experimental: as §1, §2, §3, §4, §5, §6, §7

T2 sequence (P41145 whole entry): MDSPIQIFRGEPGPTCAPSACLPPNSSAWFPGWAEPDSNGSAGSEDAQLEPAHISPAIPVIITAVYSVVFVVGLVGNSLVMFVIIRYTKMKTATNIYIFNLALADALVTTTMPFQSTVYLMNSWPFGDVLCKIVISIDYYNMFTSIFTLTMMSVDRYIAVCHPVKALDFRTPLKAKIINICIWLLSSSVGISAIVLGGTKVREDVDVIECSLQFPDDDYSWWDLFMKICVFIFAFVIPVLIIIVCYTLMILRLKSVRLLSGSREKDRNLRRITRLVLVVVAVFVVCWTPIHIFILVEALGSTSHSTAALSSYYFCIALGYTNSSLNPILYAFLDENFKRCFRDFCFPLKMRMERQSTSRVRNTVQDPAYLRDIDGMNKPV
T6 sequence (Q99705 whole entry): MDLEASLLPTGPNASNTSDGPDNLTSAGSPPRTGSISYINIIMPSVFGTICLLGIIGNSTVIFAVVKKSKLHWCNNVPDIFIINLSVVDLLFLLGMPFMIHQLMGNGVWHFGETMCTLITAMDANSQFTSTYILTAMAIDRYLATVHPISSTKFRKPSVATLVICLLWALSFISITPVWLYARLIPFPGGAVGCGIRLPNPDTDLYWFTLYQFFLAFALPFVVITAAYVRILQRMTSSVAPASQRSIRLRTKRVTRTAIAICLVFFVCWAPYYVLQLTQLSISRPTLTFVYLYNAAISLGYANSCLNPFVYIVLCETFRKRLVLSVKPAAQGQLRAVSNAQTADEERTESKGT
T4 sequence (P41968 whole entry): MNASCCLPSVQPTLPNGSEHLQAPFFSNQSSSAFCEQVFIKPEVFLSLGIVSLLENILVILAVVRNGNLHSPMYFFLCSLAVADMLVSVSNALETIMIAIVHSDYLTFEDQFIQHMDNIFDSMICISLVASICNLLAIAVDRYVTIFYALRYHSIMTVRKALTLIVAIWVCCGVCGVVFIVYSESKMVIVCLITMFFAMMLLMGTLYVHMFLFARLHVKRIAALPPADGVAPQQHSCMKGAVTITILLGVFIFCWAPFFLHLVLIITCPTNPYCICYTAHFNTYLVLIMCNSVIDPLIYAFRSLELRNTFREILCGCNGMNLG
T8 sequence (P25103 whole entry): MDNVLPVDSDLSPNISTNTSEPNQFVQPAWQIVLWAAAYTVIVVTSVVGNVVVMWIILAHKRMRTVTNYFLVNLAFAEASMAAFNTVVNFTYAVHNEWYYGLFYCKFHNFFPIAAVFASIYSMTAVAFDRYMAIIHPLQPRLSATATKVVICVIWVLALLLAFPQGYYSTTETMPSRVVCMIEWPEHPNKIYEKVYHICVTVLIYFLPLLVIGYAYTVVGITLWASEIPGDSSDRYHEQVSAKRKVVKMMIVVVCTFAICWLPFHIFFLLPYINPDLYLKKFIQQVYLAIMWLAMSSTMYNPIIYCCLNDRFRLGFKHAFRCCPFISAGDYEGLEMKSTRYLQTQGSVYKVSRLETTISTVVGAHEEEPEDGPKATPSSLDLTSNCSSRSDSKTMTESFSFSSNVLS
T5 sequence (P41146 whole entry): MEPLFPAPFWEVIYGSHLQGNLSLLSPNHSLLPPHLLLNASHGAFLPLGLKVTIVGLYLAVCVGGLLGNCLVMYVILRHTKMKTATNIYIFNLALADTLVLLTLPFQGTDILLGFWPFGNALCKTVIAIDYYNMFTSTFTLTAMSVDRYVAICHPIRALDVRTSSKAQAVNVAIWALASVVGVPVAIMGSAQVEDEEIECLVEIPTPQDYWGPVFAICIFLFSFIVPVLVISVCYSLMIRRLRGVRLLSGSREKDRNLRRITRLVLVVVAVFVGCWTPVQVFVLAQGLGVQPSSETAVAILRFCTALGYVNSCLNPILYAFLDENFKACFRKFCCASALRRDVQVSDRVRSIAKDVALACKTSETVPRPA
T3 sequence (P35372 whole entry): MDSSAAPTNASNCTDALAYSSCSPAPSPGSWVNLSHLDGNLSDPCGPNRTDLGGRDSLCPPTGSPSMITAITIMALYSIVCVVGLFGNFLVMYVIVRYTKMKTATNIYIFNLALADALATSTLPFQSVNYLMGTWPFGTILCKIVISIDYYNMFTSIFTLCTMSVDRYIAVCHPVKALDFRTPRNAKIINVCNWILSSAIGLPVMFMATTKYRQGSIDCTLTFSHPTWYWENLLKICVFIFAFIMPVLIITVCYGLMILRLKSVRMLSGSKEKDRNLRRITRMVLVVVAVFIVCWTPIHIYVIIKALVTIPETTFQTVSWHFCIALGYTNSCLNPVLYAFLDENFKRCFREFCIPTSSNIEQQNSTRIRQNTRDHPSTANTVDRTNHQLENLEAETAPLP
T7 sequence (P33032 whole entry): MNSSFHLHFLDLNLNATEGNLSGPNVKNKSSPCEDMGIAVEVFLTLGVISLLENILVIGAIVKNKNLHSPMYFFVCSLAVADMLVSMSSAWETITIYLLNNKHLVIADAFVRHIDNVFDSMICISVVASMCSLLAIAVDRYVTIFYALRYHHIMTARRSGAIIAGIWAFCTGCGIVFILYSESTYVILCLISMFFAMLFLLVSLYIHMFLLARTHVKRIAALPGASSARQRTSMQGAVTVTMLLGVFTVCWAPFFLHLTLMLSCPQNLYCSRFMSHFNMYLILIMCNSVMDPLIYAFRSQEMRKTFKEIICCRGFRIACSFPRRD
T1 sequence (P41143 whole entry): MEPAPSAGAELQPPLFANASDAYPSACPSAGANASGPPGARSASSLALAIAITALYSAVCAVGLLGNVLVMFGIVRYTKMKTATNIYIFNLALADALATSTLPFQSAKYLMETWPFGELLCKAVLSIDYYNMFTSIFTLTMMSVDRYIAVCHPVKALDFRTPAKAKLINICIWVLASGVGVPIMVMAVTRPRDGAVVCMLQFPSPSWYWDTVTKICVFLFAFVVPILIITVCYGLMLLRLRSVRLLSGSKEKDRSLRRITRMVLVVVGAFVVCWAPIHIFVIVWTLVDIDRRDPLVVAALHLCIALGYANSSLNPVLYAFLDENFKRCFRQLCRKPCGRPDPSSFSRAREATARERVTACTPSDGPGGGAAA
T11 sequence (P32245 whole entry): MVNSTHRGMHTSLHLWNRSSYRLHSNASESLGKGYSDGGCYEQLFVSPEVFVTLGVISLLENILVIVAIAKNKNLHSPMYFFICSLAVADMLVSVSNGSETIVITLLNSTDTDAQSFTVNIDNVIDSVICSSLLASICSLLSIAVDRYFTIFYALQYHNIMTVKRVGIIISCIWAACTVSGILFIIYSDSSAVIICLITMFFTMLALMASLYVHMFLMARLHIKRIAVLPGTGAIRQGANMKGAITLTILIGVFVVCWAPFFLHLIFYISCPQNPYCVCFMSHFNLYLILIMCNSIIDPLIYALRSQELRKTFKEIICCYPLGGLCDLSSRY

Compound	A1: inhibition of radioligand binding, human δ-opioid (DOP) (Human δ-opioid (DOP))	A2: inhibition of radioligand binding, human κ-opioid (KOP) (Human κ-Opioid (KOP))	A7: inhibition of radioligand binding, human μ-opioid (MOP) (Human μ-opioid (MOP))	A3: inhibition of radioligand binding, human melanocortin (MC3) (Human Melanocortin (MC3))	A10: inhibition of radioligand binding, human opioid (ORL1) (Human opioid (ORL1))	A6: inhibition of radioligand binding, human melanin-concentrating hormone (MCH1) [1]	A5: inhibition of radioligand binding, human melanocortin (MC5) (Human melanocortin (MC5))	A8: inhibition of radioligand binding, human neurokinin (NK1) (Human neurokinin (NK1))	A9: inhibition of radioligand binding, human neuropeptide Y (NPY-Y1) [2]	A11: inhibition of radioligand binding, mouse urotensin (mUR2) (Mouse urotensin (mUR2))	A4: inhibition of radioligand binding, human melanocortin (MC4) (Human Melanocortin (MC4))	A2: inhibition of radioligand binding, human κ-opioid (KOP) (Human κ-Opioid (KOP); 10 µM)	A9: inhibition of radioligand binding, human neuropeptide Y (NPY-Y1) ([2]; 10 µM)	A11: inhibition of radioligand binding, mouse urotensin (mUR2) (Mouse urotensin (mUR2); 10 µM)
CSC1O[C@H](COCc2ccc3ccccc3c2)[C@@H](O)[C@@H](OCc2ccc(-c3ccccc3)cc2)[C@H]1NC(=O)CNC(=N)N (stereo partly shown) [compound 296]	− (“−” indicates less than 50% inhibition at 10 μM)	− (“−” indicates less than 50% inhibition at 10 μM)	− (“−” indicates less than 50% inhibition at 10 μM)	− (“−” indicates less than 50% inhibition at 10 μM)	− (“−” indicates less than 50% inhibition at 10 μM)	− (“−” indicates less than 50% inhibition at 10 μM)	− (“−” indicates less than 50% inhibition at 10 μM)	+ (“+” indicates greater than 50% inhibition at 10 μM)	− (“−” indicates less than 50% inhibition at 10 μM)	− (“−” indicates less than 50% inhibition at 10 μM)	− (“−” indicates less than 50% inhibition at 10 μM)	–	–	–
N=C(N)NCCC(=O)N[C@H]1C(OCc2ccc(Cl)cc2)O[C@H](COCc2ccc(Cl)cc2)[C@@H](O)[C@@H]1OCc1ccc(-c2ccccc2)cc1 (stereo partly shown) [compound 538]	− (“−” indicates less than 50% inhibition at 10 μM)	–	− (“−” indicates less than 50% inhibition at 10 μM)	+ (“+” indicates greater than 50% inhibition at 10 μM)	+ (“+” indicates greater than 50% inhibition at 10 μM)	+ (“+” indicates greater than 50% inhibition at 10 μM)	+ (“+” indicates greater than 50% inhibition at 10 μM)	+ (“+” indicates greater than 50% inhibition at 10 μM)	–	–	+ (“+” indicates greater than 50% inhibition at 10 μM)	+ (“+” indicates greater than 50% inhibition at 10 μM)	+ (“+” indicates greater than 50% inhibition at 10 μM)	+ (“+” indicates greater than 50% inhibition at 10 μM)
